ChEMBL document CHEMBL3507680, “University of Dundee, Gates Library screen for HepG2 cell viability”

Experiment: Human HepG2 cell viability assay in 384 well format
Type: toxicity, cell-based
Parameters: dose 125 nL, time 70.5 hour; cytotoxicity at 70.5 h: concentration not given beside the values
Conditions: HepG2 cells, read-out: Inhibition
Work on CCOC(=O)[C@@H]1[C@@H](O)C(=O)N(C)C12CCN(C(=O)c1ccco1)CC2 yielded a cytotoxicity at 70.5 h of -4.06%. Work on CCS(=O)(=O)N1CC(=O)N(CCOc2ccccc2)CC(O)C1 (stereo unspecified) yielded a cytotoxicity at 70.5 h of -2.23%. Molecule CC1(C)CN(CC(O)C(C)(C)C)C(=O)CN(C(=O)c2ccccc2)C1 (stereo unspecified) has a cytotoxicity at 70.5 h of -4.32%. Molecule CCOC(=O)[C@@H]1[C@@H](OC)C(=O)N(C)C12CCN(C(=O)C(CC)CC)CC2 has a cytotoxicity at 70.5 h of -7.55%. Molecule CCOC(=O)[C@H]1[C@@H](O)C(=O)N(C)C12CCN(C(=O)OCC)CC2 has a cytotoxicity at 70.5 h of 0.864%. For CCOC(=O)[C@H]1[C@@H](O)C(=O)N(C)C12CCN(C(=O)CC(C)(C)C)CC2, the cytotoxicity at 70.5 h was -6.45%. For CCOC(=O)[C@H]1[C@@H](O)C(=O)N(C)C12CCN(C(=O)c1ccccc1)CC2, the cytotoxicity at 70.5 h was -2.45%. For COCC1N(C(=O)N2CCOCC2)[C@H]2CC[C@]1(O)CC2 (stereo partly specified), the cytotoxicity at 70.5 h was -1.43%. Molecule O=C(C1CCC1)N1C(CN2CCOCC2)[C@]2(O)CC[C@H]1CC2 (stereo partly specified) has a cytotoxicity at 70.5 h of 13.5%. CN(C)C(=O)CN1C[C@H]2CCN(C(=O)C3CCCO3)CC[C@H]2S1(=O)=O (stereo partly specified) gave a cytotoxicity at 70.5 h of -4.76%. For Cc1nnc([C@@H]2C[C@H]3CN(C(=O)C4CC4)C[C@H]3O2)[nH]1, the cytotoxicity at 70.5 h was -5.22%. Molecule CC1CCCCN1C(=O)c1nc2c(n1C(C)C)CCN(C(=O)C1CC1)C2 (stereo unspecified) has a cytotoxicity at 70.5 h of -8.72%. In the case of CN(C)CC(=O)N1Cc2cc(-c3cc[nH]n3)ccc2C1c1cnco1 (stereo unspecified), the cytotoxicity at 70.5 h is reported as -1.64%. c1ccc(COCC2CNCc3nccn3C2)nc1 (stereo unspecified) showed a cytotoxicity at 70.5 h of 0.439%. With O=C(c1cccnc1)N1Cc2[nH]nc(COCCO)c2C1 the cytotoxicity at 70.5 h was -4.06%. Molecule O=C(C1CCCO1)N1CC[C@@H]2CN(Cc3ccccc3)S(=O)(=O)[C@@H]2CC1 (stereo partly specified) has a cytotoxicity at 70.5 h of -6.03%. For Cc1nnc([C@H]2C[C@@H]3CCN(C(=O)C4CCOCC4)C[C@H]3O2)[nH]1, the cytotoxicity at 70.5 h was -9.85%. c1cn2c(n1)CNCC(COCC1CC1)C2 (stereo unspecified) gave a cytotoxicity at 70.5 h of -9.26%. CCN1CC2(CC1=O)CN(C(=O)C(C)C)CCN(S(C)(=O)=O)C2 (stereo unspecified) showed a cytotoxicity at 70.5 h of 19.5%. For COCCn1cnc(-c2cc(C(=O)NC(C)C)c3ccccn23)c1, the cytotoxicity at 70.5 h was -6.05%. CC1N(CC2CC2)C(=O)COC12CCN(C(=O)c1ccno1)CC2 (stereo unspecified) showed a cytotoxicity at 70.5 h of -4.07%. For CC1N(CC2CC2)C(=O)COC12CCN(C(=O)c1cscn1)CC2 (stereo unspecified), the cytotoxicity at 70.5 h was -5.04%. In the case of CC(=O)N1CCC(c2cc3c(ncn3C)c(-c3cnn(C)c3)n2)CC1, the cytotoxicity at 70.5 h is reported as -8.6%. Cn1cccc1C(=O)NC[C@H]1C[C@@H]2CN(C(=O)c3ccno3)C[C@H]2O1 gave a cytotoxicity at 70.5 h of -9.62%. For Cc1ncsc1C(=O)NCC1CCC2(CCNCC2)CO1 (stereo unspecified), the cytotoxicity at 70.5 h was -6.8%. Nc1nc(C(=O)NCC2CCC3(CCNCC3)CO2)cs1 (stereo unspecified) showed a cytotoxicity at 70.5 h of -13.9%. CN(Cc1cccs1)C1CCC[C@@H]2CN(C(=O)c3cnccn3)C[C@H]12 (stereo partly specified) gave a cytotoxicity at 70.5 h of -7.78%. Cn1cc(-c2nc3c(cc2C(=O)O)CCN(C(=O)C2CC2)CC3)cn1 showed a cytotoxicity at 70.5 h of -7.13%. Cc1oncc1C(=O)N1C[C@H]2CCCC(N(C)Cc3cccs3)[C@H]2C1 (stereo partly specified) gave a cytotoxicity at 70.5 h of -8.63%. For N#Cc1cccc(N2CCCC3(C2)CN(c2ncc(F)cn2)CCO3)n1 (stereo unspecified), the cytotoxicity at 70.5 h was 1.87%. Molecule CCN(CC)c1ncc2c(c1C(=O)O)CCN(C1CCOC1)C2 (stereo unspecified) has a cytotoxicity at 70.5 h of 3.75%. Work on CN1CCC2(CCCN(C(=O)c3cncn3C)C2)CC1 yielded a cytotoxicity at 70.5 h of -7.82%. Work on CN(Cc1ccco1)Cc1cnc2n1CCN(c1ncccn1)CC2 yielded a cytotoxicity at 70.5 h of -9.53%. Work on O=C(c1ccccc1)N1CCO[C@@H]2CN(c3ncccn3)C[C@@H]2C1 yielded a cytotoxicity at 70.5 h of -6.94%. In the case of Cn1nc(Cn2cccn2)c2c1CN(Cc1ccoc1)C2, the cytotoxicity at 70.5 h is reported as -3.73%. CN1CCN(c2ncc3c(c2C(=O)O)CCN(C2CCOC2)C3)CC1 (stereo unspecified) showed a cytotoxicity at 70.5 h of -7.02%. O=C(O)c1c(-c2ccncc2)ncc2c1CCN(C1CCOC1)C2 (stereo unspecified) showed a cytotoxicity at 70.5 h of -9.17%. In the case of CCCN1CCc2[nH]nc(C(=O)N3CCNC(=O)C3)c2C1, the cytotoxicity at 70.5 h is reported as -2.77%. Work on O=C(O)c1cc2c(nc1-c1ccsc1)CCN(C1CCOC1)CC2 (stereo unspecified) yielded a cytotoxicity at 70.5 h of -12.7%. For N#Cc1cccc(N2CCCC3(CNCCO3)C2)n1 (stereo unspecified), the cytotoxicity at 70.5 h was -8.33%. In the case of O[C@H]1CCN(CC2CC2)[C@H]1Cc1ccncc1, the cytotoxicity at 70.5 h is reported as -4.14%.
